Some test systems named below: EKVX NSCLC; HOP-92 NSCLC; HT29 colon; KM12 colon; NCI-H23 lung; OVCAR-3 ovarian; OVCAR-5 ovarian; U251 CNS; IGROV1 ovarian; NCI-H522 lung.
Holding throughout (experiment): NCI anticancer screen, dose series, 48 h

Structures are written as SMILES.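 Following 48 hours of exposure in 96-well plates, responses at five concentrations were used to interpolate endpoints linearly. Here, GI50 denotes the concentration required for 50% inhibition of growth. TGI: concentration producing complete growth inhibition.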 Bounds are passed on as bounds.

As to `COc1ccc2c(C(=O)NCCCCCC(=O)O)cc3cc4c(cc3c2c1)OCO4`, the GI50 with EKVX NSCLC, in the test with HOP-92 NSCLC, with HT29 colon, in the test with KM12 colon, in the test with NCI-H23 lung and with OVCAR-3 ovarian was greater than 100 µM each time. Further, the GI50 with OVCAR-5 ovarian and with U251 CNS was greater than 100 µM in each case. Moreover, the TGI with EKVX NSCLC, in the test on HOP-92 NSCLC, in the test on HT29 colon, in the test with KM12 colon, in the test with NCI-H23 lung and in the test on OVCAR-3 ovarian was greater than 100 µM throughout. The TGI with OVCAR-5 ovarian and in the test on U251 CNS was greater than 100 µM each time.

`Cc1cc(=O)[nH]c2c1C(=O)C(=O)C=C2`: the GI50 was 54 µM in the test on EKVX NSCLC; 77.9 µM with HOP-92 NSCLC; 38.2 µM with HT29 colon; 48.6 µM in the test on IGROV1 ovarian; 21.9 µM in the test on NCI-H23 lung; greater than 100 µM in the test on NCI-H522 lung. Moreover, the GI50 in the test with OVCAR-5 ovarian was 41.3 µM; in the test with U251 CNS, 23.8 µM. Besides, the TGI in the test with EKVX NSCLC was greater than 100 µM; in the test with HOP-92 NSCLC it was greater than 100 µM; in the test with HT29 colon, greater than 100 µM; in the test on IGROV1 ovarian, greater than 100 µM; in the test with NCI-H23 lung it was 48.3 µM; in the test with NCI-H522 lung, greater than 100 µM. Further, the TGI was greater than 100 µM with OVCAR-5 ovarian and 63.5 µM in the test on U251 CNS.

Take `O=C1CCC(=O)C12CCc1ccccc12`: the TGI with EKVX NSCLC, with HOP-92 NSCLC, in the test with HT29 colon, with IGROV1 ovarian, in the test with NCI-H23 lung and with OVCAR-3 ovarian was greater than 100 µM in each case. In the test with U251 CNS, the TGI is greater than 100 µM.

As for `CC1(C)OC(=O)C(c2ccsc2)C(=O)O1`, the TGI in the test with EKVX NSCLC, with HOP-92 NSCLC, in the test with HT29 colon, with KM12 colon, in the test on NCI-H23 lung and in the test with NCI-H522 lung was greater than 100 µM throughout. The TGI with OVCAR-3 ovarian, in the test with OVCAR-5 ovarian and in the test with U251 CNS was greater than 100 µM throughout.

Turning to `COC(=O)C1=CCS(=O)(=O)C1`, the TGI in the test on EKVX NSCLC, in the test with HOP-92 NSCLC, with HT29 colon, with IGROV1 ovarian, with KM12 colon and in the test with NCI-H23 lung was greater than 100 µM each time. Also, the TGI in the test with OVCAR-3 ovarian and in the test with OVCAR-5 ovarian was greater than 100 µM each time.

For `Fc1cccc(C2SCc3nc4ccccc4n32)c1` (stereo unspecified), the TGI was greater than 100 µM with EKVX NSCLC; 55.7 µM with HOP-92 NSCLC; greater than 100 µM in the test with HT29 colon; greater than 100 µM in the test on IGROV1 ovarian; greater than 100 µM in the test on KM12 colon; greater than 100 µM in the test with NCI-H23 lung. Moreover, the TGI is 96.1 µM with NCI-H522 lung, greater than 100 µM with OVCAR-3 ovarian and 79.3 µM with OVCAR-5 ovarian.

On to `O=C(NCCOCCO)c1ccc(O)cc1`, for which the TGI in the test with EKVX NSCLC was 42.9 µM; in the test on HOP-92 NSCLC, greater than 100 µM; in the test on IGROV1 ovarian, greater than 100 µM; in the test on NCI-H23 lung, greater than 100 µM; in the test on NCI-H522 lung, greater than 100 µM; in the test on U251 CNS, greater than 100 µM.

Take `O=c1cc(/C=C/c2ccccc2)c2ccc(O/C(=C\c3ccccc3)c3nc4ccccc4c(=O)o3)cc2o1`: the TGI was greater than 100 µM with EKVX NSCLC; 86.1 µM with HOP-92 NSCLC; greater than 100 µM in the test with IGROV1 ovarian; greater than 100 µM in the test with KM12 colon; 28.7 µM in the test on NCI-H23 lung; 81.1 µM in the test with OVCAR-3 ovarian. Also, the TGI with OVCAR-5 ovarian and in the test on U251 CNS was greater than 100 µM throughout.

With `CC(=O)Oc1cc(OC(C)=O)c(OC(C)=O)c2c1CC1C(=O)C3(CCc4ccccc43)C(=O)C1C2` (stereo unspecified), the TGI in the test with EKVX NSCLC is 37.6 µM; with HOP-92 NSCLC, greater than 100 µM; in the test on HT29 colon it was 40.9 µM; with IGROV1 ovarian, 38.6 µM; with NCI-H23 lung, 40.2 µM; in the test with OVCAR-3 ovarian, 16.6 µM. In addition, the TGI in the test with U251 CNS was found to be 29.2 µM.

As for `CCN(CC)[C@@H]1c2cc3c(cc2C(c2cc(OC)c(O)c(OC)c2)C2C(=O)CO[C@@H]21)OCO3` (stereo partly specified), the TGI in the test on EKVX NSCLC, in the test on HOP-92 NSCLC, with HT29 colon, in the test on IGROV1 ovarian, in the test with KM12 colon and in the test with NCI-H23 lung was greater than 100 µM throughout. Further, the TGI in the test with NCI-H522 lung, in the test with OVCAR-5 ovarian and in the test with U251 CNS was greater than 100 µM in each case.

Consider `O=C1OC(/C=C/c2ccccc2)C(=O)C1=O` (stereo unspecified), for which the TGI in the test on EKVX NSCLC, in the test on HOP-92 NSCLC, with HT29 colon, in the test with IGROV1 ovarian, in the test with KM12 colon and with NCI-H23 lung was greater than 100 µM in each case. For the same compound, the TGI with NCI-H522 lung, in the test on OVCAR-5 ovarian and in the test on U251 CNS was greater than 100 µM throughout.

Turning to `OC1/C(=C/c2ccccc2)CNC/C1=C\c1ccccc1` (stereo unspecified), the TGI in the test on EKVX NSCLC, in the test on HOP-92 NSCLC, with HT29 colon, in the test on IGROV1 ovarian, with KM12 colon and in the test with NCI-H522 lung was greater than 100 µM in each case. The TGI in the test with OVCAR-3 ovarian, with OVCAR-5 ovarian and with U251 CNS was greater than 100 µM each time.

Turning to `CCCCCCCCCCCC(=O)[O][Sn]([CH2]CCC)([CH2]CCC)[CH2]CCC`, the GI50 in the test with HOP-92 NSCLC is 0.0119 µM; in the test on HT29 colon it was 0.0355 µM; in the test on IGROV1 ovarian it was 0.0547 µM; with KM12 colon it was 0.0357 µM; in the test on NCI-H23 lung, 0.0312 µM; in the test with NCI-H522 lung, 0.0409 µM. Moreover, the GI50 in the test on OVCAR-3 ovarian was 0.0518 µM; in the test on OVCAR-5 ovarian it was 0.0548 µM; in the test on U251 CNS it was 0.0442 µM. Besides, the TGI came to 0.0728 µM in the test on HOP-92 NSCLC; 0.11 µM in the test on HT29 colon; 0.175 µM in the test with IGROV1 ovarian; 0.117 µM with KM12 colon; 0.145 µM in the test with NCI-H23 lung; 0.116 µM with NCI-H522 lung. Besides, the TGI is 0.125 µM in the test on OVCAR-3 ovarian, 0.164 µM with OVCAR-5 ovarian and 0.125 µM in the test on U251 CNS.

Source of the values: PubChem BioAssay (NCI).
